Assay type in all cases: biochemical
One test addresses T1, human Src enzyme (Homo sapiens, UniProt P12931).
T1 construct: purchased Carna Biosciences, Inc. 08-173
As to the kind of experiment: Src enzyme inhibitory activity (time-resolved fluorometry, biotinylated peptide phosphorylation). The conditions noted are these: read-out: SRC_IC50. The gist of the method:
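Compounds were tested for blocking tyrosine phosphorylation of a biotinylated peptide substrate by recombinant human Src. Phosphorylated product was quantified by time-resolved fluorometry using europium cryptate and XL665 conjugates, and IC50 was calculated against the compound-free control.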

A further test deals with T2, human Yes1 enzyme (Homo sapiens, UniProt P07947).
T2 construct: made in house
Description: Yes1 enzyme inhibitory activity (time-resolved fluorometry, biotinylated peptide phosphorylation). The conditions noted are these: read-out: YES_IC50. Summed up: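 Inhibition was expressed against a compound-free control to give IC50, using TR-FRET read-out (Eu-cryptate anti-pTyr antibody, streptavidin-XL665).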

The target of the next test is T3, human Lck enzyme (Homo sapiens, UniProt P06239).
T3 construct: purchased Carna Biosciences, Inc. 08-170
Description: Lck enzyme inhibitory activity (time-resolved fluorometry, biotinylated peptide phosphorylation). The conditions noted are these: read-out: LCK_IC50. Summed up:
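Readout pairs a europium cryptate-labelled anti-phosphotyrosine antibody with XL665-streptavidin, measured by time-resolved fluorescence. IC50 derived from percent inhibition against untreated controls.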

T3 sequence (P06239 whole entry): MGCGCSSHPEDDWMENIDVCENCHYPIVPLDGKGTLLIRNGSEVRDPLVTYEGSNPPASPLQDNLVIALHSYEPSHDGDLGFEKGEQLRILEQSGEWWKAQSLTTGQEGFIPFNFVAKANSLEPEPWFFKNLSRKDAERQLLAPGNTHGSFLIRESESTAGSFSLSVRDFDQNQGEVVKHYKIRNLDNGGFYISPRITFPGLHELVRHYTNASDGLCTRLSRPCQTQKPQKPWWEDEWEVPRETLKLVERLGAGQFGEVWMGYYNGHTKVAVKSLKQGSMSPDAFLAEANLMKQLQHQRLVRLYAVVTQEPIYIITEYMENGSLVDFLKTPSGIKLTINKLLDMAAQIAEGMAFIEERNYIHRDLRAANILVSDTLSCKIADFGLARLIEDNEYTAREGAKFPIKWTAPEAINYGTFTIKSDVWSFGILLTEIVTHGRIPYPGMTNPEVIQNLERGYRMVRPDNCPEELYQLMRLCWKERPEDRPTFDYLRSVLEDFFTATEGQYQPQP
T1 sequence (P12931 whole entry): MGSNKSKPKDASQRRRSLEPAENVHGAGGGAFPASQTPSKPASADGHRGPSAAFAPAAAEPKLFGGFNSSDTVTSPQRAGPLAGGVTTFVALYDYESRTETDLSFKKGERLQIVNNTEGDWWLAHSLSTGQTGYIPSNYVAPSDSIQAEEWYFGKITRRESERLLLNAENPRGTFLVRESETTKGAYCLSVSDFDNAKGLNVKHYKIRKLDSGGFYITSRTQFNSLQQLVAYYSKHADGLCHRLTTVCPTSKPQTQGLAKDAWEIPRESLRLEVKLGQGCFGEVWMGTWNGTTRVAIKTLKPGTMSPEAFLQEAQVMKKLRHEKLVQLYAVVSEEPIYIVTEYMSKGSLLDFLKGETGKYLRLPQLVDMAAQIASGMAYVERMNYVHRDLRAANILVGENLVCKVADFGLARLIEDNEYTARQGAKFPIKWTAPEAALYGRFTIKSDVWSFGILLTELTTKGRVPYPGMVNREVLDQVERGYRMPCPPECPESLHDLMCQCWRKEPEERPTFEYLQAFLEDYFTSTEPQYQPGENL
T2 sequence (P07947 whole entry): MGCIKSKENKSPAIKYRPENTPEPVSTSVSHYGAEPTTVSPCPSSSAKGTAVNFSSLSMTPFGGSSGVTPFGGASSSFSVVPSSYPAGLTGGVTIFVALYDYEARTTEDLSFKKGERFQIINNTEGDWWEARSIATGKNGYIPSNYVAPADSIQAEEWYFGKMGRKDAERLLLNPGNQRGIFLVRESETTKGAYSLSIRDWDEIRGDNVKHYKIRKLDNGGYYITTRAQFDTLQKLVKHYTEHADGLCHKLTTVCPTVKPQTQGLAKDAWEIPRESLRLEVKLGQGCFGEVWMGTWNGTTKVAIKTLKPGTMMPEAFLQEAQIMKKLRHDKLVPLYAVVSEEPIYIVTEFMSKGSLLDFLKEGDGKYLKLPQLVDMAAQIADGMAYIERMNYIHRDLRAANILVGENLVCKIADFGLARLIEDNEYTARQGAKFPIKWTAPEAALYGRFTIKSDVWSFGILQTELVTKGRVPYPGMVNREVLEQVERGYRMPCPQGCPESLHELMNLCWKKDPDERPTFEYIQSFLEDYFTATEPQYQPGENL

As to `Cc1cc(Oc2ccc(F)cc2)ncc1-n1ncc(C(=O)c2cc3cc(F)c(NS(=O)(=O)C4CC4)cc3[nH]2)c1N` [Example 5-1-046, N-[2-[5-amino-1-[6-(4-fluorophenoxy)-4-methylpyridin-3-yl]pyrazole-4-carbonyl]-5-fluoro-1H-indol-6-yl]cyclopropanesulfonamide], the IC50 at human Src enzyme was found to be 160 nM; on human Yes1 enzyme it was 7.9 nM; on human Lck enzyme it was 110 nM.
The corresponding values for `Cc1ccccc1Oc1cc(C)c(-n2ncc(C(=O)c3cc4cc(NS(C)(=O)=O)c(F)cc4[nH]3)c2N)cn1` [Example 5-1-047, N-[2-[5-amino-1-[4-methyl-6-(2-methylphenoxy)pyridin-3-yl]pyrazole-4-carbonyl]-6-fluoro-1H-indol-5-yl] methanesulfonamide] are 15 nM, 0.87 nM and 5.1 nM.
The like results for `Cc1cc(Oc2cccc(Cl)c2)cc(F)c1-n1ncc(C(=O)c2cc3cc(NS(C)(=O)=O)c(F)cc3[nH]2)c1N` [Example 5-1-048, N-[2-[5-amino-1-[4-(3-chlorophenoxy)-2-fluoro-6-methylphenyl]pyrazole-4-carbonyl]-6-fluoro-1H-indol-5-yl]methanesulfonamide] were, in that order, 110 nM, 1.6 nM and 6.4 nM.
As to `Cc1cc(Oc2cccc(F)c2F)ncc1-n1ncc(C(=O)c2cc3cc(NS(C)(=O)=O)c(F)cc3[nH]2)c1N` [Example 5-1-049, N-[2-[5-amino-1-[6-(2,3-difluorophenoxy)-4-methylpyridin-3-yl]pyrazole-4-carbonyl]-6-fluoro-1H-indol-5-yl]methanesulfonamide], the IC50 amounted to 70 nM at human Src enzyme, 1.5 nM at human Yes1 enzyme and 3.9 nM at human Lck enzyme.
On to `Cc1cc(Oc2ccccc2Cl)ncc1-n1ncc(C(=O)c2cc3cc(NS(C)(=O)=O)c(F)cc3[nH]2)c1N` [Example 5-1-050, N-[2-[5-amino-1-[6-(2-chlorophenoxy)-4-methylpyridin-3-yl]pyrazole-4-carbonyl]-6-fluoro-1H-indol-5-yl]methanesulfonamide], for which the IC50 at human Src enzyme was determined as 23 nM; at human Yes1 enzyme it was 0.77 nM; on human Lck enzyme, 1.8 nM.
The like results for `Cc1cc(Oc2ccccc2Cl)nc(C)c1-n1ncc(C(=O)c2cc3cc(F)c(NS(C)(=O)=O)cc3[nH]2)c1N` [Example 5-1-051, N-[2-[5-amino-1-[6-(2-chlorophenoxy)-2,4-dimethylpyridin-3-yl]pyrazole-4-carbonyl]-5-fluoro-1H-indol-6-yl]methanesulfonamide] were, in that order, 320 nM, 60 nM and 82 nM.
Consider `Cc1cc(Oc2cccc(Cl)c2)nc(C)c1-n1ncc(C(=O)c2cc3cc(F)c(NS(C)(=O)=O)cc3[nH]2)c1N` [Example 5-1-052, N-[2-[5-amino-1-[6-(3-chlorophenoxy)-2,4-dimethylpyridin-3-yl]pyrazole-4-carbonyl]-5-fluoro-1H-indol-6-yl]methanesulfonamide], for which the results for the IC50 on human Src enzyme, on human Yes1 enzyme and on human Lck enzyme were 810 nM, 120 nM and 250 nM, respectively.
On to `Cc1cc(Oc2cccc(F)c2F)nc(C)c1-n1ncc(C(=O)c2cc3cc(F)c(NS(C)(=O)=O)cc3[nH]2)c1N` [Example 5-1-053, N-[2-[5-amino-1-[6-(2,3-difluorophenoxy)-2,4-dimethylpyridin-3-yl]pyrazole-4-carbonyl]-5-fluoro-1H-indol-6-yl]methanesulfonamide], for which the IC50 is 430 nM at human Src enzyme, 65 nM at human Yes1 enzyme and 97 nM at human Lck enzyme.
Regarding `Cc1cc(Oc2cc(F)cc(F)c2)nc(C)c1-n1ncc(C(=O)c2cc3cc(F)c(NS(C)(=O)=O)cc3[nH]2)c1N` [Example 5-1-054, N-[2-[5-amino-1-[6-(3,5-difluorophenoxy)-2,4-dimethylpyridin-3-yl]pyrazole-4-carbonyl]-5-fluoro-1H-indol-6-yl]methanesulfonamide], the IC50 stood at 1000 nM on human Src enzyme, 150 nM on human Yes1 enzyme and 350 nM on human Lck enzyme.
As to `Cc1cc(Oc2cc(Cl)ccc2Cl)ncc1-n1ncc(C(=O)c2cc3cc(F)c(NS(C)(=O)=O)cc3[nH]2)c1N` [Example 5-1-055, N-[2-[5-amino-1-[6-(2,5-dichlorophenoxy)-4-methylpyridin-3-yl]pyrazole-4-carbonyl]-5-fluoro-1H-indol-6-yl]methanesulfonamide], the IC50 is 190 nM at human Src enzyme, 16 nM at human Yes1 enzyme and 94 nM on human Lck enzyme.
For the compound `Cc1cc(Oc2ccccc2F)ncc1-n1ncc(C(=O)c2cc3cc(F)c(NS(=O)(=O)CC(=O)NC(C)C)cc3[nH]2)c1N` [Example 5-1-056, 2-[[2-[5-amino-1-[6-(2-fluorophenoxy)-4-methylpyridin-3-yl]pyrazole-4-carbonyl]-5-fluoro-1H-indol-6-yl]sulfamoyl]-N-propan-2-ylacetamide], the IC50 stood at 76 nM at human Src enzyme, 1.7 nM on human Yes1 enzyme and 24 nM at human Lck enzyme.
`Cc1cc2cc(C(=O)c3cnn(-c4cnc(Oc5ccccc5F)cc4C)c3N)[nH]c2cc1NS(=O)(=O)NC1CCOCC1` [Example 5-1-057, [5-amino-1-[6-(2-fluorophenoxy)-4-methylpyridin-3-yl]pyrazol-4-yl]-[5-methyl-6-(oxan-4-ylsulfamoylamino)-1H-indol-2-yl] methanone]: the results for the IC50 on human Src enzyme, at human Yes1 enzyme and at human Lck enzyme were 150 nM, 2 nM and 31 nM, respectively.
With `Cc1cc2cc(C(=O)c3cnn(-c4cnc(Oc5ccccc5F)cc4C)c3N)[nH]c2cc1NS(=O)(=O)CC(=O)NC(C)C` [Example 5-1-058, 2-[[2-[5-amino-1-[6-(2-fluorophenoxy)-4-methylpyridin-3-yl]pyrazole-4-carbonyl]-5-methyl-1H-indol-6-yl]sulfamoyl]-N-propan-2-ylacetamide], the IC50 on human Src enzyme worked out at 58 nM; on human Yes1 enzyme, 1.6 nM; at human Lck enzyme, 25 nM.
In the case of `Cc1cc(Oc2cccc(F)c2)ncc1-n1ncc(C(=O)c2cc3cc(F)c(NS(=O)(=O)CCCF)cc3[nH]2)c1N` [Example 5-1-059, N-[2-[5-amino-1-[6-(3-fluorophenoxy)-4-methylpyridin-3-yl]pyrazole-4-carbonyl]-5-fluoro-1H-indol-6-yl]-3-fluoropropane-1-sulfonamide], the IC50 at human Src enzyme amounted to 130 nM; on human Yes1 enzyme, 3.4 nM; on human Lck enzyme it was 33 nM.
With `Cc1cc(Oc2ccccc2F)nc(C)c1-n1ncc(C(=O)c2cc3cc(F)c(NS(C)(=O)=O)cc3[nH]2)c1N` [Example 5-1-060, N-[2-[5-amino-1-[6-(2-fluorophenoxy)-2,4-dimethylpyridin-3-yl]pyrazole-4-carbonyl]-5-fluoro-1H-indol-6-yl]methanesulfonamide], the figures for the IC50 at human Src enzyme, on human Yes1 enzyme and on human Lck enzyme were 390 nM, 82 nM and 42 nM, respectively.
Consider `Cc1cc(Oc2ccccc2F)ccc1-n1ncc(C(=O)c2cc3cc(O)c(NS(C)(=O)=O)cc3[nH]2)c1N` [Example 5-1-061, N-[2-[5-amino-1-[4-(2-fluorophenoxy)-2-methylphenyl]pyrazole-4-carbonyl]-5-hydroxy-1H-indol-6-yl]methanesulfonamide], for which the IC50 at human Src enzyme stood at 12 nM; at human Yes1 enzyme, 0.96 nM; on human Lck enzyme, 7 nM.
Turning to `Cc1cc2cc(C(=O)c3cnn(-c4ccc(Oc5ncccc5Cl)cc4Cl)c3N)[nH]c2cc1N1CCCS1(=O)=O` [Example 5-1-062, [5-amino-1-[2-chloro-4-(3-chloropyridin-2-yl)oxyphenyl]pyrazol-4-yl]-[6-(1,1-dioxo-1,2-thiazolidin-2-yl)-5-methyl-1H-indol-2-yl] methanone], the IC50 on human Src enzyme worked out at 48 nM; at human Yes1 enzyme it was 2.4 nM; at human Lck enzyme, 13 nM.
On to `Cc1cc2cc(C(=O)c3cnn(-c4ccc(Oc5ncccc5Cl)cc4Cl)c3N)[nH]c2cc1NS(=O)(=O)CCCF` [Example 5-1-063, N-[2-[5-amino-1-[2-chloro-4-(3-chloropyridin-2-yl)oxyphenyl]pyrazole-4-carbonyl]-5-methyl-1H-indol-6-yl]-3-fluoropropane-1-sulfonamide], for which the IC50 at human Src enzyme was determined as 83 nM; at human Yes1 enzyme, 2.8 nM; on human Lck enzyme it was 29 nM.
Take `Cc1cc2cc(C(=O)c3cnn(-c4cnc(Oc5ccc(F)cc5)cc4C)c3N)[nH]c2cc1NS(=O)(=O)N1CCOCC1` [Example 5-1-064, N-[2-[5-amino-1-[6-(4-fluorophenoxy)-4-methylpyridin-3-yl]pyrazole-4-carbonyl]-5-methyl-1H-indol-6-yl]morpholine-4-sulfonamide]: the IC50 at human Src enzyme was 340 nM; on human Yes1 enzyme, 24 nM; on human Lck enzyme, 260 nM.
On to `Cc1cc2cc(C(=O)c3cnn(-c4ccc(Oc5ncccc5Cl)cc4Cl)c3N)[nH]c2cc1NS(=O)(=O)N1CCOCC1` [Example 5-1-065, N-[2-[5-amino-1-[2-chloro-4-(3-chloropyridin-2-yl)oxyphenyl]pyrazole-4-carbonyl]-5-methyl-1H-indol-6-yl]morpholine-4-sulfonamide], for which the IC50 at human Src enzyme worked out at 350 nM; on human Yes1 enzyme, 7.7 nM; on human Lck enzyme, 120 nM.
Regarding `Cc1cc2cc(C(=O)c3cnn(-c4c(C)cc(Oc5cccc(F)c5F)cc4F)c3N)[nH]c2cc1NS(=O)(=O)N1CCOCC1` [Example 5-1-066, N-[2-[5-amino-1-[4-(2,3-difluorophenoxy)-2-fluoro-6-methylphenyl]pyrazole-4-carbonyl]-5-methyl-1H-indol-6-yl]morpholine-4-sulfonamide], the IC50 stood at 210 nM at human Src enzyme, 2.7 nM on human Yes1 enzyme and 77 nM at human Lck enzyme.

The values above are taken from patent US10479780B2, “Aminopyrazole derivatives” (Chugai Seiyaku Kabushiki Kaisha, priority 2015, dated 2019).
